{"source": "patent US8962793B2", "about": "“ErbB interface peptidomimetics and methods of use thereof” (The Trustees of the University of Pennsylvania, priority 2001, dated 2015)", "key": {"ErbB1": {"molecular_target": "T1, ErbB1 (Homo sapiens, UniProt P00533)", "T1 construct": "gift of Dr. Mark A. Lemmon, University of Pennsylvania School of Medicine", "T1 sequence (P00533 25-645 limits assumed)": "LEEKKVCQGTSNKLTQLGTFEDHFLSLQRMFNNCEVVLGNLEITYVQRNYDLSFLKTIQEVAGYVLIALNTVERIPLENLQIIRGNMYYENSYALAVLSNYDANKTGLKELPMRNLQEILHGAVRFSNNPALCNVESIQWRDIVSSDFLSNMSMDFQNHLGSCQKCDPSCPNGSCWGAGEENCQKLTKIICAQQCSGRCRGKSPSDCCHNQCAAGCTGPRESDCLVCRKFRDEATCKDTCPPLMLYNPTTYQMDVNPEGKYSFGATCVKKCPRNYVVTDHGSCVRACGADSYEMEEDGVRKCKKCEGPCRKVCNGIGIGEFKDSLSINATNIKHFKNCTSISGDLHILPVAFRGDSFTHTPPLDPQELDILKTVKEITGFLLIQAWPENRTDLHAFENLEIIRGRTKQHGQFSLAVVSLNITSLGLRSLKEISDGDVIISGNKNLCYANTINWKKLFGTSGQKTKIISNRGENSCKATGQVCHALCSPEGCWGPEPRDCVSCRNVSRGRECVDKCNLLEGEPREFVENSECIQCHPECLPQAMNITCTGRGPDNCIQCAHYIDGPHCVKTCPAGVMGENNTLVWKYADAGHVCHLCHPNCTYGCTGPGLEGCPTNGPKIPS", "assay": "Surface plasmon resonance (Biacore) binding to immobilized ErbB1 extracellular domain", "settings": "immobilized extracellular domain, surface plasmon resonance; read-out: KD (μM) ErbB1", "method": "(§1) The designed erbB peptides were tested for binding to erbB receptors using surface plasmon resonance (Biacore) technology (described supra) using soluble erbB-1 and erbB-3. The response was plotted in real time in the form of sensorgram curves.\n(§2) Binding experiments were performed with the surface plasmon resonance based biosensor instrument Biacore 3000 (Biacore AB, Uppsala, Sweden), at 25° C. […] (erbB2) and Dr. Mark A. Lemmon, Department of Biochemistry and Biophysics, University of Pennsylvania School of Medicine (erbB1 and erbB3). Immobilization of the erbB receptors in the sensor surface was performed following the standard amine coupling procedure according to manufacturer's instructions. Briefly, 35 μl of a solution containing 0.2 M N-ethyl-N′-(dimethylaminopropyl) carbodiimide (EDC) and 0.05 M N-hydroxysuccinimide (NHS), were injected at a flow rate of 5 μl/min to activate carboxyl groups on the sensor chip surface. Receptors (40 ng/ml in 10 mM NaOAc buffer, pH 5.0) were flowed over the chip surface at a flow rate of 20 μl/min until the desired level bound protein was reached. Unreacted protein was washed out and unreacted activated groups were blocked by the injection of 35 μl of 1 M ethanolamine at 5 μl/min. […] A reference surface was generated simultaneously under the same conditions but without receptor injection and used as a blank to correct for instrument and buffer artifacts. Peptides were injected at variable concentrations at 20 μl/min flow rate and binding to the receptors immobilized on the chip was monitored in real time. Each sensorgram consists of an association phase (first 240 s), reflecting binding of the injected peptide to the receptor, followed by a dissociation phase (300 s), during which the running buffer is passed over the chip and the bound peptide is being washed off the receptor surface."}, "ErbB2": {"molecular_target": "T2, ErbB2 (Homo sapiens, UniProt P04626)", "T2 construct": "provided by Dr. Che Law, Xcyte Therapeutics, Seattle", "T2 sequence (P04626 23-652 limits assumed)": "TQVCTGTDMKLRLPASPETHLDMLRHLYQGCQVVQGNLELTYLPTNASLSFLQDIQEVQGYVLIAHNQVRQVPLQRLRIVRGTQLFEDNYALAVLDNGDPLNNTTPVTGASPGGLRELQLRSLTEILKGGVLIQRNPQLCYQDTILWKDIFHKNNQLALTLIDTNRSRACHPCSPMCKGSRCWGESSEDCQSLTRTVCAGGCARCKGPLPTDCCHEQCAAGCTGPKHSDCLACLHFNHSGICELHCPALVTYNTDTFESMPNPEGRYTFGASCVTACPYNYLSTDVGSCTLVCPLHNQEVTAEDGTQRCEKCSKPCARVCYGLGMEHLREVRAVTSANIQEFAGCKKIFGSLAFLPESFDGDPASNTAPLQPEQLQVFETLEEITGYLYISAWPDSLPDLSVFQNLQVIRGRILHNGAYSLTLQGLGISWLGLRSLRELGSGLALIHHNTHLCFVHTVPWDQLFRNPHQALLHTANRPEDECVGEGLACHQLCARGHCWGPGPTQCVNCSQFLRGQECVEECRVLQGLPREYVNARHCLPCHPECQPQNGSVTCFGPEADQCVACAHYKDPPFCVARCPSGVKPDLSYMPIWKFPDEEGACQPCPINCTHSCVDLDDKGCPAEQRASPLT", "assay": "Surface plasmon resonance (Biacore) binding to immobilized ErbB2 extracellular domain", "settings": "immobilized extracellular domain, surface plasmon resonance; read-out: KD (μM) ErbB2", "method": "as §1, with “curves. Dissociation constants (Kd) were determined as described (Park, et al. 2000, Nat. Biotechnol. 18:194-198).” for “curves.”\nA sensorgram for binding of B2-S22-APE peptide to erbB receptors immobilized on the sensor chip was performed.\nas §2"}, "ErbB3": {"molecular_target": "T3, ErbB3 (Homo sapiens, UniProt P21860)", "T3 construct": "gift of Dr. Mark A. Lemmon, University of Pennsylvania School of Medicine", "T3 sequence (P21860 20-643 limits assumed)": "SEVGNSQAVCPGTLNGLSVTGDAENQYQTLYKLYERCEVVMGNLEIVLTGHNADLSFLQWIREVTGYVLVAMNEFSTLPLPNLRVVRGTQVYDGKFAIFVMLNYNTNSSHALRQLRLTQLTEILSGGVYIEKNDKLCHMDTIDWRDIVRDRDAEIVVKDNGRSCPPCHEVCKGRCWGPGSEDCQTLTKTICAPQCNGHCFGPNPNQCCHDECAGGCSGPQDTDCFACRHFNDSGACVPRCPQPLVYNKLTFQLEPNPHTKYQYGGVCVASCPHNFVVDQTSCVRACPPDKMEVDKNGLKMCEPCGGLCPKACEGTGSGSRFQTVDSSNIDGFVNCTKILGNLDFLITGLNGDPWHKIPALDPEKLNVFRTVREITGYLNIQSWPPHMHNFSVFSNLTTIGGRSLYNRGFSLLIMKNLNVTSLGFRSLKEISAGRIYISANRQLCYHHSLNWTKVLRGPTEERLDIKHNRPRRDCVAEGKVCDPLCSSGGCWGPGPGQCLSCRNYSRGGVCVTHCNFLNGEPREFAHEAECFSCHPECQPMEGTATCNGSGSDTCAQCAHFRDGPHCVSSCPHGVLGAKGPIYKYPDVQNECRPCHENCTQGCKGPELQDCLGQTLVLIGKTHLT", "assay": "Surface plasmon resonance (Biacore) binding to immobilized ErbB3 extracellular domain", "settings": "immobilized extracellular domain, surface plasmon resonance; read-out: KD (μM) ErbB3", "method": "as §1, §2"}, "[1]": {"molecular_target": "T4, erbB3-erbB1 heteromerization (Homo sapiens, UniProt P00533)", "T4 construct": "the ectodomains of erbB receptors were immobilized on the surface chip; erbB1 and erbB3: gift of Dr. Mark A. Lemmon", "T4 sequence (P00533 25-645 limits assumed, one chain of several)": "as the sequence (P00533 25-645 limits assumed) above", "assay": "SPR inhibition of HRGβ1-induced binding of ErbB3 to immobilized ErbB1", "settings": "peptide 10 μm, ErbB3 300 nm, HRGβ1 5 μM", "method": "(§3) The effect of cysteine-knot mimetics on receptor self-associations, was examined using a Biacore assay in which the ectodomains of erbB receptors were immobilized on the surface chip and the ectodomain of erbB3 was injected at 300 nM concentrations either alone or in the presence of 5 μM hereglunin HRGβ1.\n(§4) The effect of the erbB peptides on heregulin-induced receptor self-associations was studied by preinjecting them at 10 μM followed by injection of erbB3-HRGβ1 (FIG. 4; 1B, 2B, 3B).\nas §2"}, "[2]": {"molecular_target": "T5, erbB3-erbB2 heteromerization (Homo sapiens, UniProt P04626)", "T5 construct": "the ectodomains of erbB receptors were immobilized on the surface chip; erbB2: Dr. Che Law, Xcyte Therapeutics; erbB3: Dr. Mark A. Lemmon", "T5 sequence (P04626 23-652 limits assumed, one chain of several)": "as the sequence (P04626 23-652 limits assumed) above", "assay": "SPR inhibition of HRGβ1-induced binding of ErbB3 to immobilized ErbB2", "settings": "peptide 10 μm, ErbB3 300 nm, HRGβ1 5 μM", "method": "as §3, §4, §2"}, "[3]": {"molecular_target": "T6, erbB3-erbB3 homomerization (Homo sapiens, UniProt P21860)", "T6 construct": "the ectodomains of erbB receptors were immobilized on the surface chip; erbB3: gift of Dr. Mark A. Lemmon", "T6 sequence (P21860 20-643 limits assumed)": "as the sequence (P21860 20-643 limits assumed) above", "assay": "SPR inhibition of HRGβ1-induced binding of ErbB3 to immobilized ErbB3", "settings": "peptide 10 μm, ErbB3 300 nm, HRGβ1 5 μM", "method": "as §3, §4, §2"}, "[4]": {"molecular_target": "T7, erbB2-erbB4 receptor heteromerization in the 32D-E2/E4 cells (Homo sapiens, UniProt P04626)", "T7 construct": "dimerization of native full-length ErbB receptors was studied using the 32D cell lines transfected with different erbB receptors; host or cells: 32D cells (32D-E2/E4)", "T7 sequence (P04626 23-1255, one chain of several)": "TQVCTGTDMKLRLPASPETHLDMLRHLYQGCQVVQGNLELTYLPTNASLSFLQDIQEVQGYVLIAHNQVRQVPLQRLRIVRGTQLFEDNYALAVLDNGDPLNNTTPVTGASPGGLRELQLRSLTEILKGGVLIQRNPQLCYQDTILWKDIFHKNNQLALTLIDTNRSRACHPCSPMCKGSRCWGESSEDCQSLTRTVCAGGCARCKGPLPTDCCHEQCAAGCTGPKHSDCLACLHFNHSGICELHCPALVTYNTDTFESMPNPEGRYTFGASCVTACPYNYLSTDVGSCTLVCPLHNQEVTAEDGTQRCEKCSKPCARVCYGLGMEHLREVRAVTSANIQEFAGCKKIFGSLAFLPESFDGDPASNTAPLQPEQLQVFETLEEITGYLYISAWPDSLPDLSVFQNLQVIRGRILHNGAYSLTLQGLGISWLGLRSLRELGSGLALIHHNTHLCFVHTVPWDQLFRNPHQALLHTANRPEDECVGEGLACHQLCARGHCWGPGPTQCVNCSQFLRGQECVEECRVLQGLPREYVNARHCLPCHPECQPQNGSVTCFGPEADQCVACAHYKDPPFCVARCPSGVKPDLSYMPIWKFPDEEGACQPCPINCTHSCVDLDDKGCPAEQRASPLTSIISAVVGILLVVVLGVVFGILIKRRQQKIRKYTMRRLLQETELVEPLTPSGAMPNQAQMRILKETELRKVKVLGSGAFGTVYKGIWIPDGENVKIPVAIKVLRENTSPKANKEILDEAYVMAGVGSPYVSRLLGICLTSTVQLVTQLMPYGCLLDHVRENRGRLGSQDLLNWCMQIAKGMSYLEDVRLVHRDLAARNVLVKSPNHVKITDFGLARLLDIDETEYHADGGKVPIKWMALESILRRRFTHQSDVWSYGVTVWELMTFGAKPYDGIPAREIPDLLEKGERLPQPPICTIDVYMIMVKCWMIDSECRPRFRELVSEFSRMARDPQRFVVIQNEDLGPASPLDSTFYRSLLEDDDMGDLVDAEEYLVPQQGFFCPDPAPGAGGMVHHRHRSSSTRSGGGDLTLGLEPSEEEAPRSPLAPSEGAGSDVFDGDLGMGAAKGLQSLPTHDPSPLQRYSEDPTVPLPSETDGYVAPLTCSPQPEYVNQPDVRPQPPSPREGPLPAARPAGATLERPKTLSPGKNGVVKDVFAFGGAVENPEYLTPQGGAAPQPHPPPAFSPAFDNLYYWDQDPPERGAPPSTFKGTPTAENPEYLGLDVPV", "assay": "Chemical cross-linking and immunoblotting of heregulin-induced receptor dimerization in 32D-E2/E4 cells", "type": "cell-based", "settings": "dose-dependent, FIG. 5B, read-out: apparent IC50 of inhibition of receptor dimerization", "method": "Effect of the ErbB peptides on biochemically defined dimerization of native full-length ErbB receptors was studied using the 32D cell lines transfected with different erbB receptors. 32D-E1 cells were transfected with erbB1; 32D-E2/E3 with erbB2 and erbB3; and 32D-E2/E4 with erbB2 and erbB4.\n32D cell transfectants with ErbB receptors (gift from Dr. Jacalyn H. Pierce, National Cancer Institute) were grown in RPMI 1640, 10% FBS and 5% WEHI medium (GenoQuest, Interlukin-3 supplement) and respective antibiotics, i.e. 32D-E1 (gptr), 32D-E2/E3 (neor/gptr) and 32D-E2/E4 (neor/gptr) (29). The WEHI medium was withdrawn and cells were pre-incubated with ErbB peptides for 2 hours at 37° C. before adding 10 μg/ml EGF (for 32D-E1, Collaborative Biomedical Products) or 10 μg/ml HRG 1 (for 32D-E2/E3 or 32D E2/E4, R&D Systems) and further incubated at 37° C. for 24-48 hours. The cell viability was detected with propidium iodide staining followed by flow cytometry quantification. For the cross-linking analysis, approximately 2×10^6 cells were suspended in RPMI 1640 medium containing 0.1% BSA and 10 mM HEPES, and pre-incubated with ErbB peptides for 2 hours at 37° C. before adding 10 μg/ml EGF or 10 μg/ml Heregulin-β1 EGF domain and further incubated at 37° C. for 10-15 minutes. Cells were rinsed with PBS and incubated in 2 mM BS^3/PBS at 4° C. for 45 minutes. […]"}}, "note": "Bridge positions count the residues as written; N and C are the ends. Peptide text beside a SMILES is read from it."}
{"smiles": "C[C@@H]1NC(=O)CNC(=O)[C@H](CCC(=O)O)NC(=O)[C@H](CCC(=O)O)NC(=O)[C@H](CC(=O)O)NC(=O)[C@@H]2CCCN2C(=O)[C@H](Cc2ccccc2)NC(=O)[C@@H](NC(=O)[C@@H](N)Cc2ccc(O)cc2)CSSC[C@@H](C(=O)N[C@@H](Cc2ccc(O)cc2)C(N)=O)NC1=O", "note": "[B2-S22-AFA, YCFPDEEGACY] (H-YCFPDEEGACY-NH2; disulfide 2-10)", "values": [{"measurement": "Kd", "setting": "ErbB1", "value": 0.407, "unit": "µM"}, {"measurement": "Kd", "setting": "ErbB2", "value": 0.302, "unit": "µM"}, {"measurement": "Kd", "setting": "ErbB3", "value": 0.429, "unit": "µM"}, {"measurement": "Percent Inhibition ErbB1", "setting": "[1]", "value": 78.4, "unit": "%"}, {"measurement": "Percent Inhibition ErbB2", "setting": "[2]", "value": 82.5, "unit": "%"}, {"measurement": "Percent Inhibition ErbB3", "setting": "[3]", "value": 61.7, "unit": "%"}, {"measurement": "IC50", "setting": "[4]", "value": 800, "unit": "nM"}]}
